GI50 and TGI data for eight compounds are collected here from PubChem BioAssay (NCI).

Where “and” joins values, the source holds several entries; their conditions need not be identical. Equal values may be shown once.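 Five compound concentrations were applied to cells in 96-well plates for 48 hours; endpoints were derived by simple linear interpolation of the resulting dose-response curve. The concentration for 50% growth inhibition is given as GI50. TGI: total growth inhibition.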

Common to all, as to experiment: growth of human tumour cells (NCI), 48 h
The test system of assay [1] is SK-MEL-5 melanoma.
Assay [2] concerns MOLT-4 leukemia.
For assay [3], the system named is NCI-H23 lung.
Assay [4] deals with K-562 leukemia.
For assay [5], the system named is PC-3 prostate.
The test system of assay [6] is HCT-15 colon.
The test system of assay [7] is EKVX NSCLC.
Assay [8] concerns BT-549 breast.
Assay [9] has as its system SN12C renal.
Assay [10] has as its system HT29 colon.

In the case of `COc1cc2nc(Nc3cccc(Cl)c3)nc(N)c2cc1OC`, the GI50 in assay [1] is 3.27 µM; in assay [2], 2780 nM; in assay [3] it was 14.2 µM; in assay [4] it was 3.67 µM; in assay [5] it was 6.82 µM; in assay [6], 2620 nM. Also, the GI50 is 12.9 µM in assay [7], 13500 nM in [8], 12 µM in assay [9] and 3230 nM in assay [10]. Besides, the TGI in assay [1] is 11.2 µM; in assay [2], 11.4 µM; in assay [3], 33.2 µM; in assay [4] it was more than 36.1 µM; in [5] it was 21 µM; in assay [6] it was 10.4 µM. In addition, the TGI in [7] stood at 27 µM; in assay [8], 27.8 µM; in [9], 24.3 µM; in assay [10] it was 12.4 µM.

Take `CCSC[C@@H]1C[C@](O)(c2ccc(Cl)cc2)[C@@H](c2ccc(Cl)cc2)O1`: the GI50 in [1] was 15.3 µM; in assay [2] it was 17700 nM; in [3] it was 19.3 µM; in [4], 18.8 µM; in assay [5] it was 20 µM; in [6], 18800 nM. The GI50 was 17.3 µM in assay [7], 15200 nM in assay [8], 17.6 µM in [9] and 15600 nM in assay [10]. For the same compound, the TGI in [1] came out at 28.7 µM; in assay [2] it was 43.6 µM; in assay [3], 41.6 µM; in assay [4], 44.2 µM; in [5] it was 39.1 µM; in [6] it was 38.7 µM. Besides, the TGI in assay [7] was determined as 40.7 µM; in assay [8], 28.9 µM; in assay [9], 34.6 µM; in assay [10], 30.8 µM.

On to `CCC1=C(c2ccc(OC)cc2)C(C)(C)Oc2c1ccc(O)c2CN1CCCC1`, for which the GI50 in assay [1] is 1.3 µM; in [2] it was 2180 nM; in assay [3], 3.02 µM; in assay [4], 0.759 µM; in assay [5] it was 2.58 µM; in [6] it was 1910 nM. In addition, the GI50 is 18.6 µM in assay [7], 2290 nM in assay [8], 3.74 µM in assay [9] and 3140 nM in assay [10]. The TGI amounted to 2.57 µM in assay [1]; 6.53 µM in assay [2]; 21.6 µM in assay [3]; 3.1 µM in assay [4]; 29.3 µM in [5]; 4.44 µM in assay [6]. Besides, the TGI was more than 100 µM in [7], 12.7 µM in assay [8], more than 100 µM in [9] and 8.94 µM in [10].

With `CC(C)(C)OC(=O)C1C(=O)NC(=O)CC1CC(OCc1ccccc1)C(OCc1ccccc1)C(COCc1ccccc1)OCc1ccccc1` (stereo not drawn), the GI50 in assay [1] is 22 µM and 10.6 µM; in assay [2], 14100 nM and 3860 nM; in assay [3] it was 80.1 µM and 30 µM; in assay [4] it was 41.5 µM and 11 µM; in [5] it was 54.7 µM and 8.16 µM; in assay [6] it was 60500 nM and 21400 nM. In addition, the GI50 was 62.2 µM and 12.6 µM in assay [7]; 95 µM and 36.4 µM in assay [9]. For the same compound, the TGI was > 100 µM and 37.6 µM in [1]; > 100 µM and 28.1 µM in assay [2]; more than 100 µM in assay [3]; more than 100 µM in [4]; more than 100 µM in assay [5]; more than 100 µM in assay [6]. In addition, the TGI in assay [7] was more than 100 µM; in [8], 79.5 µM and > 100 µM; in assay [9] it was more than 100 µM; in assay [10] it was > 100 µM and 23.5 µM.

With `Cc1c(CN2CCN(C(=O)[C@H](C)O)CC2)sc2c(N3CCOCC3)nc(-c3cnc(N)nc3)nc12`, the GI50 in [1] is 0.397 µM and 0.174 µM; in [2] it was 175 nM and 139 nM; in assay [3] it was 0.389 µM and 0.181 µM; in assay [4], 1.5 µM and 2.39 µM; in assay [5] it was 0.122 µM and 0.0753 µM; in assay [6], 258 nM and 248 nM. Further, the GI50 is 0.121 µM and 0.21 µM in [7]; 146 nM and 65 nM in [8]; 0.179 µM and 0.174 µM in assay [9]; 207 nM and 174 nM in assay [10]. For the same compound, the TGI was 2.15 µM and 0.741 µM in assay [1]; > 10 µM and 12.7 µM in assay [2]; more than 100 µM in [3]; more than 100 µM in [4]; more than 100 µM in [5]; more than 100 µM in assay [6]. Moreover, the TGI in [7] was 2.26 µM and 2.34 µM; in assay [8], 3.11 µM and 0.57 µM; in [9] it was more than 100 µM; in assay [10], more than 56.8 µM.

For the compound `CC1=C(C#N)C23C(=O)N(c4ccccc4)C(=O)C2=C(O)C=CC3(O)N1Cc1ccc(Cl)cc1Cl` (stereo not drawn), the GI50 in assay [1] is 5.19 µM; in [2], 2920 nM; in assay [3] it was 3.33 µM; in assay [4], 3.76 µM; in [5], 4.68 µM; in assay [6] it was 5880 nM. Moreover, the GI50 in assay [7] is 9.43 µM; in assay [8] it was 1460 nM; in assay [9], 2.4 µM; in [10] it was 1970 nM. Further, the TGI came to 17 µM in [1]; 7.55 µM in assay [2]; 15.9 µM in [3]; 9.26 µM in assay [4]; 17.1 µM in [5]; 19 µM in [6]. Further, the TGI in assay [7] came out at 21.3 µM; in assay [8], 3.17 µM; in assay [9], 6.83 µM; in assay [10], 4.84 µM.

On to `Cc1ccc(OCC2CO2)c(Br)c1` (stereo not drawn), for which the TGI is 60.5 µM in assay [1]; 70.4 µM in assay [2]; 76.7 µM in [3]; 71.6 µM in assay [4]; more than 100 µM in assay [5]; 29.2 µM in assay [6]. The TGI in assay [7] was determined as 35.8 µM; in assay [8], 0.879 µM; in assay [9], 45 µM; in assay [10], 29.1 µM.

With `CCOC(=O)c1[nH]c2cc(Cl)ccc2c1[C@@H](C(=O)NC(C)(C)C)N(CC)C(=O)CCCCC#Cc1cccc2c1CN(C1CCC(=O)NC1=O)C2=O` (stereo partly drawn), the GI50 was 1.22 µM in assay [1]; less than 10 nM in [2]; 3.93 µM in assay [3]; 1.52 µM in assay [4]; less than 0.01 µM in assay [5]; 48 nM in assay [6]. Moreover, the GI50 is 1.39 µM in [7], less than 19.7 nM in assay [8], 0.283 µM in [9] and 2130 nM in [10]. For the same compound, the TGI in assay [1] was 2.56 µM; in [2], 0.0152 µM; in [3] it was 21.2 µM; in assay [4], more than 100 µM; in assay [5], 9.36 µM; in [6] it was more than 33.2 µM. In addition, the TGI in assay [7] was 45.5 µM; in [8], 4.81 µM; in [9] it was more than 100 µM; in [10], more than 100 µM.
